{"source": "patent US20130137776A1", "about": "“METHOD FOR INHIBITING HISTONE GENE TRANSCRIPTION AND EXPRESSION” (CHINA MEDICAL UNIVERSITY, priority 2011, published 2013)", "key": {"[1]": {"system": "histone H3 expression in HSC-3 cancer cell line", "test": "Western blotting analysis of histone H3, HSC-3 cancer cell line", "type": "cell-based, human", "details": "6.25 μM and 12.5 μM, 24 hours, actin internal control", "description": "(§1) Normal human oral keratinocyte cell lines (OK, obtained from China Medical University Hospital, Taiwan), HSC-3 cancer cell lines, and SAS cancer cell lines (OSCC cancer cell line, obtained from the tongue tissue of a patient in National Yang Ming University, Taiwan) were cultured (the protocols related to cell culture can be seen in Lu, S. Y. et al., Ripe areca nut extract induces G1 phase arrests and senescence-associated phenotypes in normal human oral keratinocyte. Carcinogenesis, 2006. 27 (6), p. 1273-84; and Shieh, T. M. et al., Association of expression aberrances and genetic polymorphisms of lysyl oxidase with areca-associated oral tumorigenesis. Clin Cancer Res, 2007. 13 (15 Pt 1), p. 4378-85, which are entirely incorporated hereinto by reference). The cells were respectively treated by 0 μM, 6.25 μM, and 12.5 μM hinokitiol for 24 hours, and scratched from the cell culture dishes and collected by centrifugation. Then, western blotting analysis was performed (see Lu, S. Y. et al., Ripe areca nut extract induces G1 phase arrests and senescence-associated phenotypes in normal human oral keratinocyte. Carcinogenesis, 2006. 27 (6), p. 1273-84, which is entirely incorporated hereinto by reference). […]"}, "[2]": {"system": "histone H3 expression in SAS cancer cell line", "test": "Western blotting analysis of histone H3, SAS cancer cell line", "type": "cell-based, human", "details": "6.25 μM and 12.5 μM, 24 hours, actin internal control", "description": "as §1"}, "[3]": {"system": "histone H2B and H3 gene expression in HSC-3 cell line", "test": "Reverse transcription-PCR of histone H2B and H3 gene expression", "type": "cell-based, human", "details": "6.25 μM, 24 hours, GAPDH internal control", "description": "HSC-3 cell lines were cultured and respectively treated by 0 μM and 6.25 μM hinokitiol for 24 hours. Then, the cells were scratched from the cell culture dishes and collected by centrifugation. Afterwards, reverse transcription-PCR (RT-PCR) was performed. The protocols and conditions related to RT-PCR can be seen in Shieh, T. M. et al., Association of expression aberrances and genetic polymorphisms of lysyl oxidase with areca-associated oral tumorigenesis. Clin Cancer Res, 2007. 13 (15 Pt1), p. 4378-85; and Shieh, T. M. et al., Association between the polymorphisms in exon 12 of hypoxia-inducible factor-1alpha and the clinicopathological features of oral squamous cell carcinoma. Oral Oncol, 2010. 46 (9), p. e47-53, which are entirely incorporated hereinto by reference.\nThe gene expression level of Glyceraldehyde-3-phosphate dehydrogenase (GAPDH) was used as an internal control. The variation of the gene expression level of histone H2B and H3 in HSC3 cell lines treated by hinokitiol was compared with the control group, and the results are shown in FIG. 2. At least two independent RT-PCR experiments were performed to validate the reproducibility of the analysis."}, "[4]": {"details": "compound of formula (I) and its salts; cited from Imai et al. 2006 and Ema et al. 2004 (rats); cited from earlier work"}, "HSC-3 cells": {"system": "HSC-3 cells", "test": "Cell cycle analysis by flow cytometry (PI staining)", "type": "cell-based, human", "details": "24 hours, 0 μM control 31.38%", "description": "HSC-3 cells (2×10^5/4 ml) were respectively treated by 0 μM, 3.12 μM, and 6.25 μM hinokitiol for 24 hours, washed by an ice-cold PBS buffer solution twice, and fixed in 70% ice-cold ethanol at 4° C. for 4 hours. Then, the cells were stained by propidium iodide (PI), and a cell cycle analysis was performed by using a BD FACSAria flow cytometer (commercially purchased from Becton Dickinson, Germany). The obtained data was analyzed by MULTICycle Software (commercially purchased from Coulter company, U.S.A.)."}, "[5]": {"system": "histone gene transcription of the HSC-3 cancer cell line", "test": "Microarray analysis of gene expression in hinokitiol-treated HSC-3 cells", "type": "cell-based", "details": "6.25 μM or 12.5 μM hinokitiol, 24 hours, Affymetrix Human Gene 1.0 ST microarray", "description": "(1) Cell Culture and RNA Collection\nHuman oral squamous-cell carcinoma (OSCC) cell lines, such as HSC-3 (JCRB0623, Japan), was cultured. The relative culture methods can be seen in Shieh, T. M. et al., Association of expression aberrances and genetic polymorphisms of lysyl oxidase with areca-associated oral tumorigenesis. Clin Cancer Res, 2007. 13(15 Pt 1): p. 4378-85; Chen, J. C. et al., Gypenosides induced G0/G1 arrest via CHk2 and apoptosis through endoplasmic reticulum stress and mitochondria-dependent pathways in human tongue cancer SCC-4 cells. Oral Oncol, 2009. 45(3): p. 273-83; and Lin, C. C. et al., Berberine induces apoptosis in human HSC-3 oral cancer cells via simultaneous activation of the death receptor-mediated and mitochondrial pathway. Anticancer Res, 2007. 27(5A): p. 3371-8, which are entirely incorporated hereinto by reference.\nThen, the HSC-3 cell lines were divided into four groups: two groups of the cells were not treated by hinokitiol (0 μM); one group of the cells was treated by 6.25 μM hinokitiol (commercially purchased from Sigma-Aldrich company); and one group of the cells was treated by 12.5 μM hinokitiol. […] The content and purity of the obtained RNA were respectively determined at wavelengths of 260 nm and 280 nm by using a micro-volume spectrophotometer (Nanodrop ND-1000, commercially purchased from Labtech. International company). […]"}, "[6]": {"system": "histone H3 expression in normal human oral keratinocyte cell line (OK)", "test": "Western blotting analysis of histone H3, normal human oral keratinocyte cell line", "type": "cell-based", "details": "6.25 μM and 12.5 μM, 24 hours, actin internal control", "description": "as §1"}}, "data": [{"smiles": "CC(C)c1cccc(O)c(=O)c1", "note": "[hinokitiol]", "values": [{"measurement": "expression level of histone H3", "setting": "[1]", "result": "significantly decreased"}, {"measurement": "expression level of histone H3", "setting": "[2]", "result": "significantly decreased"}, {"measurement": "gene expression level of histone H2B", "setting": "[3]", "result": "decreased"}, {"measurement": "gene expression level of histone H3", "setting": "[3]", "result": "decreased"}, {"measurement": "biological toxicity", "setting": "[4]", "result": "low biological toxicity"}, {"measurement": "proportion of the cells in the synthesis phase (S phase)", "setting": "HSC-3 cells; 3.125 μM hinokitiol", "result": 41.19, "unit": "%"}, {"measurement": "proportion of the cells in the synthesis phase (S phase)", "setting": "HSC-3 cells; 6.25 μM hinokitiol", "result": 43.89, "unit": "%"}, {"measurement": "expression of histone genes (H1d, H3g, H3j, H3a, H3h, H2bm, H2bg, H3l, H2bf, H2a) vs untreated control", "setting": "[5]", "result": "decreased by above two-fold"}, {"measurement": "expression level of histone H3", "setting": "[6]", "result": "not affected"}]}]}
